The values below are quoted from earlier work in patent publication US11701406B2 (The Board of Trustees of the Leland Stanford Junior …, priority 2017, dated 2023).

The target of the data set is T1, NEDD8 activating enzyme (NAE) (Homo sapiens, UniProt Q8TBC4).
T1 sequence (Q8TBC4 2-463 limits assumed): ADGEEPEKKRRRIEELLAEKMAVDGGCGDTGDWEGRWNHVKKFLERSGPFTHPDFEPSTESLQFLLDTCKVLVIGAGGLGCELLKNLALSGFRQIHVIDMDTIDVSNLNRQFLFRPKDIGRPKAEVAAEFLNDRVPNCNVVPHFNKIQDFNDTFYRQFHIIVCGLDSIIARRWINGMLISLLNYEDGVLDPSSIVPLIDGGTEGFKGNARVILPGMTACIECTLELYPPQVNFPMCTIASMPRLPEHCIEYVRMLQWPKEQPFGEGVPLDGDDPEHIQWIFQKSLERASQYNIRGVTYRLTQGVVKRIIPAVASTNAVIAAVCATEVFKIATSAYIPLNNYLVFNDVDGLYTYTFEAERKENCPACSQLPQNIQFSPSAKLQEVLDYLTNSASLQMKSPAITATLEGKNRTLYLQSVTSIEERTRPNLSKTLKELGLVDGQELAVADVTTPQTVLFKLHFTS
T1 sequence (Q13564 2-534 partner limits assumed): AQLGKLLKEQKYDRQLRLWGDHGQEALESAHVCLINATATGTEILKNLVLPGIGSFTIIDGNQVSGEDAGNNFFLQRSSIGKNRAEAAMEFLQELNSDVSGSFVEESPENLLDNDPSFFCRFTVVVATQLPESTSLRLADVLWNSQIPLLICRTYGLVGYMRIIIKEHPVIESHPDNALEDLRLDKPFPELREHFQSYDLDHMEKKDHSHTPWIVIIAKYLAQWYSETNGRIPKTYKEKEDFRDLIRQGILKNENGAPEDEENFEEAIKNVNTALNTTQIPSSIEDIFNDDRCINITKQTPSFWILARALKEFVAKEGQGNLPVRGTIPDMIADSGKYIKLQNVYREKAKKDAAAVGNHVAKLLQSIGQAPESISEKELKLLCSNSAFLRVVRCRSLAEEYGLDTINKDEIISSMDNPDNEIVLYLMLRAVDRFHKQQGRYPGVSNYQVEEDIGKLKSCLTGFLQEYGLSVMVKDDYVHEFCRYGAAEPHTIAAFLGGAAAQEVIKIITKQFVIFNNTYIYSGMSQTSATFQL
Conditions: read-out: IC50 (Activity, Inhibitors of NAE).

One may read the IC50 as the midpoint of a concentration-inhibition curve. `Nc1ccc(SCC(=O)Nc2ccc3nc(NC(=O)c4ccc(C(F)(F)F)cc4)sc3c2)cc1`: the IC50 was 100 nM.
As to `Clc1ccc(CCNC2CCN(Cc3ccccc3)CC2)c(Cl)c1` [M22], the IC50 was 9000 nM.
In the case of `CCN1CCN(C(=O)N[C@@H](C(=O)N[C@@H]2C(=O)N3C2SC(C)(C)[C@@H]3C(=O)O)c2ccccc2)C(=O)C1=O` (stereo partly drawn) [Piperacillin], the IC50 was 1000 nM.
Regarding `CN1CCOc2c1ccc(F)c2C#Cc1cn([C@@H]2O[C@@H](CCS(N)(=O)=O)[C@@H](O)[C@H]2O)c2ncnc(N)c12` [TAS 1], the IC50 was 1 nM.
For `CN1CCOc2c1ccc(F)c2C#Cc1cn([C@@H]2C[C@@H](CCS(N)(=O)=O)[C@@H](O)[C@H]2O)c2ncnc(N)c12` [TAS 2], the IC50 was 20 nM.
With MLN7243, the IC50 was 1 nM.
